This assay addresses T1, LXRβ (Homo sapiens, UniProt P55055).
T1 construct: Co-transfection expression plasmids, comprising full-length LXRα (pCMX-h LXRα[…] or LXRβ (pCMX-hLXRβ)); expressed in transfected cells; host or cells: CV-1 African Green Monkey Kidney Cells
T1 sequence (P55055 1-460): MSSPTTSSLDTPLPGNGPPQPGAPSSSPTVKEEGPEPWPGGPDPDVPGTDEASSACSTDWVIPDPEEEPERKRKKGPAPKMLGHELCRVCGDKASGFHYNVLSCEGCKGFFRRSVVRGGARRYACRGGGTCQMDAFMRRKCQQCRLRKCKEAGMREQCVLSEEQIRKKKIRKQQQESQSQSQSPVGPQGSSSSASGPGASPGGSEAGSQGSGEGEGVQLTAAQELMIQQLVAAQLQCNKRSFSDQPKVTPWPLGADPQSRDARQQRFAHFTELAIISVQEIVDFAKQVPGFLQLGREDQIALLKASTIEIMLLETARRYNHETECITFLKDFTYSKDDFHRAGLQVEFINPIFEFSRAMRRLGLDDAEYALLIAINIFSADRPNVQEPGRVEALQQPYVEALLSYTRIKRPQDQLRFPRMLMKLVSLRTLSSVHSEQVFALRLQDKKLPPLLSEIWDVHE
T1 sequence (P19793 1-462 partner): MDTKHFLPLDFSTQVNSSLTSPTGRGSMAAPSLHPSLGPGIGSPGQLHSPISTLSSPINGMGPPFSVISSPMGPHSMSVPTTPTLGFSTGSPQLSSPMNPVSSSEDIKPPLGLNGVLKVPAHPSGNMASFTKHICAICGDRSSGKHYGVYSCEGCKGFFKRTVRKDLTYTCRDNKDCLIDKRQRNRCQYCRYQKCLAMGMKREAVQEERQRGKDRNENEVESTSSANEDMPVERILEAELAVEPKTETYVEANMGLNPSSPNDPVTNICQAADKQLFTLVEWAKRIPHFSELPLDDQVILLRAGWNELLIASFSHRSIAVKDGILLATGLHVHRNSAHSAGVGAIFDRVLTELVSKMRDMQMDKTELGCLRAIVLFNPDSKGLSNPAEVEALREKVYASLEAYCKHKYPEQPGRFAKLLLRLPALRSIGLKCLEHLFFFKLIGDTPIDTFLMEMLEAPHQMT
Briefly: Co-transfection assay (LXRE luciferase reporter), LXRβ. In kind it is cell-based. Also noted: % Efficacy: concentration or dose not given beside the values. The following applies: for EC50: CV-1 cells transfected with pCMX-hLXRβ and LXREx1-Tk-Luciferase, 20 hours incubation; for % Efficacy / Emax: LXRβ co-transfection, relative to high control 1-(2,4-difluorobenzyl)-2-oxo-6-(4-phenoxyphenyl)-4-(trifluoromethyl)-1,2-dihydropyridine-3-carbonitrile; for Emax: read-out: % Efficacy. From the text: To measure the ability of compounds to activate or inhibit the transcriptional activity of LXR in a cell based assay, the co-transfection assay was used. It has been shown that LXR functions as a heterodimer with RXR. For the co-transfection assay, expression plasmids for LXRα and LXRβ are introduced separately via transient transfection into mammalian cells along with a luciferase reporter plasmid that contains one copy of a DNA sequence that is bound by LXR-RXR heterodimers (LXRE; Willy, P. et. al. 1995). LXRs heterodimerize with the endogenous RXR. Treatment of transfected cells with an LXR agonist increases the transcriptional activity of LXR, which is measured by an increase in luciferase activity.
CV-1 African Green Monkey Kidney Cells
Co-transfection expression plasmids, comprising full-length LXRα (pCMX-h LXRα[…] or LXRβ (pCMX-hLXRβ), reporter plasmid (LXREx1-Tk-Luciferase), and control (pCMX-Galactosidase expression vector) (Willey et al. Genes & Development 9 1033-1045 (1995)).
CV-1 cells were prepared 24 hours prior to the experiment by plating them into T-175 flasks or 500 cm^2 dishes in order to achieve 70-80% confluency on the day of the transfection. The number of cells to be transfected was determined by the number of plates to be screened. Each well of a 384 well plate requires 1.5×10^4 cells. DNA Transfection Reagent was prepared by mixing the required plasmid DNAs with a cationic lipid transfection reagent Transit 2020 (Mirus Bio) for CV1 by following the instructions provided with the reagents. Optimal DNA amounts were determined empirically per cell line and size of vessel to be transfected. For each T175 cm^2 flask a total of 59 ug for CV1 of DNA, 133 uL Transit2020 and 4.5 mL DMEM for CV1 was mixed and added. Cells were then incubated at least 5 hours at 37° C. to prepare screening cells.
Luciferase assay reagent (*Steady-Glo Luciferase Assay System by Promega, CAT#E2550) was prepared by combining before use:
Assay plates were prepared by dispensing 5 μL of compound per well of a 384 well plate to achieve final compound concentration of 10 μM and no more than 0.5% DMSO. Media was removed from the screening cells, the cells trypsinized, harvested cells by centrifugation, counted, and plated at a density of approximately 1.5×10^4 cells in the 384 well assay plate prepared above in a volume of about 95 uL. Assay plates containing both compounds and screening cells (100 μL in total volume) were incubated for 20 hours at 37° C.
After incubation with compounds, media was removed from the cells and luciferase assay reagent (50 μL/well) added. After ˜2 minutes at ambient temperature, the assay plates were read on a luminometer (PE Biosystems Northstar reader with on-board injectors, or Envision(Perkin Elmer) or equivalent).
The LXR/LXRE co-transfection assay can be used to establish the EC50/IC50 values for potency and percent activity or inhibition for efficacy. Efficacy defines the activity of a compound relative to a high control 1-(2,4-difluorobenzyl)-2-oxo-6-(4-phenoxyphenyl)-4-(trifluoromethyl)-1,2-dihydropyridine-3-carbonitrileor a low control (DMSO/vehicle). The dose response curves are generated from a 11 point curve with concentrations differing by ½ LOG units. Each point represents the average of 2 wells of data from duplicate 384 well plate.
The data from this assay is fitted to the following equation, from which the EC50 value may be solved: Y=Bottom+(Top−Bottom)/(1+10^((logEC50-X)*HillSlope)).
The EC50/IC50 is therefore defined as the concentration at which an agonist or antagonist elicits a response that is halfway between the Top (maximum) and Bottom (baseline) values. The EC50/IC50 values represented are the averages of at least 2 and normally 3 independent experiments. […]
(A reporter such as luciferase makes a cellular process visible.)

As usually defined, the EC50 is the concentration at which the effect is half-maximal. On to `Cc1nc(-c2cc(-c3cccc(S(C)(=O)=O)c3)ccc2-n2cc(C(C)O)nc2C)c(-c2ccc3c(c2)OC(F)(F)O3)o1` (single isomer, unassigned) [Example 372, 1-(1-(3-(5-(2,2-difluorobenzo[d][1,3]dioxol-5-yl)-2-methyloxazol-4-yl)-3′-(methylsulfonyl)-[1,1′-biphenyl]-4-yl)-2-methyl-1H-imidazol-4-yl) ethanol], for which the EC50 is 838 nM and the “% Efficacy” value is recorded as 33%.
In the same order, the values of `Cc1nc(-c2cc(-c3cccc(S(C)(=O)=O)c3)ccc2-n2cc(C(C)O)nc2C)c(-c2ccc3c(c2)OC(F)(F)O3)o1` (single isomer, unassigned) [Example 514, 1-(1-(3-(5-(2,2-difluorobenzo[d][1,3]dioxol-5-yl)-2-methyloxazol-4-yl)-3′-(methylsulfonyl)-[1,1′-biphenyl]-4-yl)-2-methyl-1H-imidazol-4-yl)ethanol] are 3000 nM and 77%.
The corresponding values for `Cc1nc(-c2cc(-c3cc(F)c(CO)c(S(C)(=O)=O)c3)ccc2-n2cc(C(C)O)nc2C)c(-c2ccc3c(c2)OC(F)(F)O3)o1` (single isomer, unassigned) [Example 515, 1-(1-(3-(5-(2,2-difluorobenzo[d][1,3]dioxol-5-yl)-2-methyloxazol-4-yl)-3′-fluoro-4′-(hydroxymethyl)-5′-(methylsulfonyl)-[1,1′-biphenyl]-4-yl)-2-methyl-1H-imidazol-4-yl)ethanol] are 1210 nM and 19%.
Turning to `Cc1nc(-c2cc(-c3cc(F)c(CO)c(S(C)(=O)=O)c3)ccc2-n2cc(C(C)O)nc2C)c(-c2ccc3c(c2)OC(F)(F)O3)o1` (single isomer, unassigned) [Example 516, 1-(1-(3-(5-(2,2-difluorobenzo[d][1,3]dioxol-5-yl)-2-methyloxazol-4-yl)-3′-fluoro-4′-(hydroxymethyl)-5′-(methylsulfonyl)-[1,1′-biphenyl]-4-yl)-2-methyl-1H-imidazol-4-yl)ethanol], the concentration for a half-maximal effect (EC50) came out at 270 nM and the “% Efficacy” value is given as 41%.
Regarding `Cc1nc(C(F)(F)F)c(Cl)n1-c1ccc(-c2cc(F)c(CO)c(S(C)(=O)=O)c2)cc1-n1nncc1-c1ccc(OC(F)(F)F)cc1` [Example 1, {4′-[5-chloro-2-methyl-4-(trifluoromethyl)-1H-imidazol-1-yl]-3-fluoro-5-(methylsulfonyl)-3′-(5-{4-[(trifluoromethyl)oxy]phenyl}-1H-1,2,3-triazol-1-yl)biphenyl-4-yl}methanol], the response was half-maximal at 40 nM (EC50) and the Emax was found to be 116%.
The corresponding values for `CS(=O)(=O)c1cccc(-c2ccc(-n3cc(C(F)(F)F)nc3Cl)c(-n3nncc3-c3ccc(Cl)cc3)c2)c1` [Example 2, 5-(4-chlorophenyl)-1-{4-[2-chloro-4-(trifluoromethyl)-1H-imidazol-1-yl]-3′-(methylsulfonyl)biphenyl-3-yl}-1H-1,2,3-triazole] are 680 nM and 80%.
The corresponding values for `Cc1nc(C(=O)NCC(F)(F)F)cn1-c1ccc(-c2cccc(S(C)(=O)=O)c2)cc1-n1nncc1-c1ccc(OC(F)(F)F)cc1` [Example 3, 2-methyl-1-[3′-(methylsulfonyl)-3-(5-{4-[(trifluoromethyl)oxy]phenyl}-1H-1,2,3-triazol-1-yl)biphenyl-4-yl]-N-(2,2,2-trifluoroethyl)-1H-imidazole-4-carboxamide] are 1950 nM and 74%.
In the same order, the values of `Cc1nc(C(F)(F)F)cn1-c1ccc(-c2cccc(S(C)(=O)=O)c2)cc1-n1nncc1-c1ccc(CF)cc1` [Example 4, 5-[4-(fluoromethyl)phenyl]-1-{3′-(methylsulfonyl)-4-[2-methyl-4-(trifluoromethyl)-1H-imidazol-1-yl]biphenyl-3-yl}-1H-1,2,3-triazole] are 559 nM and 89%.
As to `Cc1nc(C(F)(F)F)cn1-c1ccc(-c2cccc(S(C)(=O)=O)c2)cc1-n1nncc1-c1ccc(C(F)F)cc1` [Example 5, 5-[4-(difluoromethyl)phenyl]-1-{3′-(methylsulfonyl)-4-[2-methyl-4-(trifluoromethyl)-1H-imidazol-1-yl]biphenyl-3-yl}-1H-1,2,3-triazole], the midpoint of the response, the EC50, lay at 258 nM and the Emax amounted to 91%.
In the same order, the values of `Cc1nc(C(F)F)cn1-c1ccc(-c2cccc(S(C)(=O)=O)c2)cc1-n1nncc1-c1ccc(OC(F)(F)F)cc1` [Example 6] are 848 nM and 93%.
As for `CS(=O)(=O)c1cccc(-c2cc(Cl)c(-n3cnc(C(F)(F)F)c3)c(-n3nncc3-c3ccc(Cl)cc3)c2)c1` [Example 7, 1-(5-chloro-3′-(methylsulfonyl)-4-(4-(trifluoromethyl)-1H-imidazol-1-yl)biphenyl-3-yl)-5-(4-chlorophenyl)-1H-1,2,3-triazole], the EC50 was 408 nM and the Emax was found to be 55%.
In the same order, the values of `Cc1nc(C(F)(F)F)cn1-c1c(F)cc(-c2cccc(S(C)(=O)=O)c2)cc1-n1nncc1-c1ccc(Cl)cc1Cl` [Example 8, 5-(2,4-dichlorophenyl)-1-{5-fluoro-3′-(methylsulfonyl)-4-[2-methyl-4-(trifluoromethyl)-1H-imidazol-1-yl]biphenyl-3-yl}-1H-1,2,3-triazole] are 143 nM and 91%.
On to `Cc1ccc(C(C)c2cnnn2-c2cc(-c3cc(F)c(CO)c(S(C)(=O)=O)c3)ccc2-n2cc(C(F)(F)F)nc2C)cc1` (centres unmarked) [Example 9, (3-fluoro-3′-{5-[1-(4-methylphenyl)ethyl]-1H-1,2,3-triazol-1-yl}-5-(methylsulfonyl)-4′-[2-methyl-4-(trifluoromethyl)-1H-imidazol-1-yl]biphenyl-4-yl)methanol], for which the concentration giving a half-maximal response (EC50) worked out at 66 nM and the Emax amounted to 75%.

Values taken from US9834542B2, “LXR modulators” (BRISTOL-MYERS SQUIBB COMPANY, priority 2013, dated 2017).
